Read-outs that look alike come from different tables or passages of the source.
Experiments:
Swiss male mice = assay: Motor activity in mice (rota-rod); conditions: 100 µg/kg, i.p., 15 min prior to the test; vehicle 0/10
[1] = test system: isolated uterus of estrogenized rats; assay: Effect on isolated uterus of estrogenized rats (non-cumulative concentration-response curves); set-up: species or system Wistar rats; conditions: for Area (g of tension/2 min): average
Method: Concentration-response curves were carried out on isolated uterus of estrogenized rats. Female Wistar rats weighing 250g to 300g were employed. The animals were pretreated with 0.1 mg/kg of estradiol, subcutaneously, 24 h before the experiment. The whole uterus was dissected and excised and a portion of 1 cm of one horn was incubated in a 10 ml organ bath, at 30°C, bubbled with a mixture of 95 % O2 plus 5 % CO2. The nutrient solution was De Jalon solution described in the International Pharmacopea II^nd Ed. and containing 4x10^-7 M sodium diclofenac. The organ was left to stabilize in the solution for one hour. No spontaneous contractions were detected under these experimental conditions. To carry out the concentration-response curves, volumes of solutions of either natural prostaglandins or B-407 were added in order to obtain concentrations in the organ bath between 10^-10 M and 3x10^-6 M. After 2 minutes, the organ was washed three times during a 15 minutes time period before adding the next test solution. In this way the concentration-response curves obtained were not cumulative ["The rat uterus preparation" in "Pharmacological Experiments on Isolated Preparations". E. and S. Livingstone Ltd. Edinburgh and London (1968), p. 92].
Recording of the contractions of the isolated uterus were on a Berger polygraph with a FT03C transducer. The frequency and magnitude of the responses were globally evaluated by calculating the total area recorded at fixed time periods as will be further explained.
(§1) The frequency and magnitude of the responses were globally evaluated by calculating the total area recorded at a fixed time period as will be further explained. The areas under the curve of the recording paper, over 15 minutes periods, were cut and weighed both in the concentration-response curves and in the potentiating experiments.
(§2) The calibration was made by weighing a piece of paper which corresponded to a tension of 1 g at the working sensitivity along 2 minutes. Therefore, a relationship of area expressed in g/2 min was obtained and then the weights of the areas of the responses were transformed to unities of area. The results were expressed as the mean ± the standard error of the areas obtained. The statistical evaluation of the differences was carried out either by ANOVA or by Student's-t-test, as appropriate.

[2] = test system: rat uterus under estrous condition; assay: C1: effect on PGF2α induced in vitro contraction of rat uterus under estrous condition; conditions: PGF2α 10^-8 M, nutrient solution 0,84
Method: The experimental conditions were identical to those described in part A for the concentration-response curves without spontaneous contractions.
The uterus was allowed to equilibrate in a 10^-8 M PGF2α solution for 2 minutes, then the uterus was washed again during 15 minutes. This whole treatment was repeated twice.
Then, a known concentration of the test prostaglandin was added and no washing was carried out during the following 15 minutes. PGF2α (10^-8 M) was added, washing once after 2 minutes and then twice over a total time period of 15 minutes. The result was expressed as the relationship between the effect of PGF2α after the treatment with B-407 and the sum of the effect of PGF2α (mean of the three initial additions) and the effect of B-407 "per se". The recordings of the contractions and their quantitation were performed as described in (A).
* p < 0.05: Tested vs. nutrient solution by ANOVA and Scheffe. ** p < 0.02: Tested vs. nutrient solution by Student's-t-test. Ratio = Effect of PGF2α after B-407/(Effect of PG F2α before B-407 + Effect of B-407). S.E. = Standard Error
as §1, §2

Beagle dogs = assay: Volume and acidity of histamine stimulated gastric secretion in dogs (gastric fistula); assay type: in vivo
Method: Healthy adult Beagle dogs weighing 10 kg to 13 kg were used.
The basal response of each dog to histamine, as represented by volume of gastric secretion and acid concentration, was carried out six times. For this purpose the dogs were placed in a Pavlov support and plastic bottles were connected to a Thomas type gastric fistula after cleaning it when necessary.
Saline i.v. infusion was started by means of a Butterfly G 21 (Abbott) needle connected to a 500 ml bottle of sterile pyrogen free isotonic saline solution through an inert plastic cannula. The solution dripping was adjusted to 1 ml/min.
The volume of gastric secretion obtained from fifteen minutes collection periods, expressed as ml/15 min, was determined. Aliquots of 5 ml were kept in the freezer to perform acid titration on the next day. The first three collection periods were considered as the actual basal gastric secretion for each dog in the absence of any drug. Then the bottle of saline was changed for a solution of histamine. 2HCl at a concentration of […] in saline. The dripping was adjusted to 20 drops per minute (984 µg histamine/hour) After the plateau of augmented gastric secretion was reached, B-407 was administered.
Acid concentration, expressed as mEq H+/l was determined by titration with sodium hydroxide.

[3] = Canis lupus familiaris, iv, read-out: VOLUME % Inhib.

For `CCCCC(C)(O)C/C=C/[C@H]1[C@H](O)CC(=O)[C@@H]1CCCC/C=C/C(=O)OC` (mixture of isomers) [B-407, trans-Δ^2-15-deoxy-16-hydroxy-16-methyl PGE1 methyl ester], the “Fraction (animals fallen before 300 sec/total number of animals)” value (Swiss male mice) was 1/10, the “Area (g of tension/2 min)” value ([1]; 1x10^-6 M, n=6) was 1,13 g of tension/ 2 min and the “Area (g of tension/2 min)” value ([1]; 1x10^-7 M, n=6) was 0,31 g of tension/ 2 min. The “Area (g of tension/2 min)” value ([1]; 1x10^-8 M, n=6) was 0,20 g of tension/ 2 min, the “Area (g of tension/2 min)” value ([1]; 1x10^-9 M, n=6) was 0,12 g of tension/ 2 min and the “Area (g of tension/2 min)” value ([1]; 1x10^-10 M, n=6) was 0,14 g of tension/ 2 min. For the same compound, the “Area (g of tension/2 min)” value ([1]; 3x10^-6 M, n=5) was 0,67 g of tension/ 2 min, the “times less potent than PGE1 on rat uterine contractility in vitro” value ([1]; PGE1 results are not shown) was “about 4 times” and the “Ratio = Effect of PGF2α after B-407/(Effect of PG F2α before B-407 + Effect of B-407)” value (shortened to “Ratio = Effect of PGF2α”) ([2]; B-407 3x10^-7 M, p < 0.05) was 2,06. For the same compound, the “Ratio = Effect of PGF2α” value ([2]; B-407 3x10^-8 M) was 1,69, the “Ratio = Effect of PGF2α” value ([2]; B-407 3x10^-9 M) was 1,29 and the inhibition at 0.003 mg/kg (Beagle dogs; Canis lupus familiaris, iv, read-out: ACIDITY % Inhib) was 59.7%. The inhibition at 0.001 mg/kg (Beagle dogs; [3]) was 15.2%, the inhibition at 0.003 mg/kg (Beagle dogs; [3]) was 93.7% and the “ACIDITY % Inhib” value (Beagle dogs; i.g. 10 µg/kg) was 42,5%. The “VOLUME % Inhib.” value (Beagle dogs; i.g. 10 µg/kg) was 24,3%, the “VOLUME Max.eff. B-407” value (Beagle dogs; i.g. 10 µg/kg, histamine plateau 42,0±3,6) was 31,8±6,2 ml/15min and the “ACIDITY Max.Eff. B-407” value (Beagle dogs; i.g. 10 µg/kg, histamine plateau 122,4±9,7) was 70,4±11,8 mEq.H^+/l. For the same compound, the “ACIDITY % Inhib” value (Beagle dogs; i.g. 30 µg/kg) was 31,8%, the “VOLUME % Inhib.” value (Beagle dogs; i.g. 30 µg/kg) was 36,3% and the “VOLUME Max.eff. B-407” value (Beagle dogs; i.g. 30 µg/kg, histamine plateau 38,3±2,6) was 24,4±3,1 ml/15min. The “ACIDITY Max.Eff. B-407” value (Beagle dogs; i.g. 30 µg/kg, histamine plateau 143,4±3,2) was 97,8±13,2 mEq.H^+/l, the “VOLUME Max.eff. B-407” value (Beagle dogs; i.v. 1 µg/kg, histamine plateau 39,5±3,4) was 33,5±3,6 ml/15min and the “VOLUME Max.eff. B-407” value (Beagle dogs; i.v. 3 µg/kg, histamine plateau 43,2±4,6) was 2,7±1,3 ml/15min. The “ACIDITY Max.Eff. B-407” value (Beagle dogs; i.v. 3 µg/kg, histamine plateau 145,3±3,0) was 58,5±16,0 mEq.H^+/l, the “VOLUME % Inhib.” value (Beagle dogs; i.vag 10 µg/kg (n=3)) was 100,0% and the “VOLUME Max.eff. B-407” value (Beagle dogs; i.vag 10 µg/kg (n=3), histamine plateau 43,0±2,0) was 0,0 ml/15min. For the same compound, the “ACIDITY % Inhib” value (Beagle dogs; i.vag 30 µg/kg (n=2)) was 67,3%, the “VOLUME % Inhib.” value (Beagle dogs; i.vag 30 µg/kg (n=2)) was 93,8% and the “VOLUME Max.eff. B-407” value (Beagle dogs; i.vag 30 µg/kg (n=2), histamine plateau 38,5±8,5) was 2,4±1,7 ml/15min. The “ACIDITY Max.Eff. B-407” value (Beagle dogs; i.vag 30 µg/kg (n=2), histamine plateau 118,9±4,3) was 38,9±19,9 mEq.H^+/l, the “ACIDITY % Inhib” value (Beagle dogs; i.vag. 1 µg/kg) was 24,4% and the “VOLUME % Inhib.” value (Beagle dogs; i.vag. 1 µg/kg) was 30,5%. The “VOLUME Max.eff. B-407” value (Beagle dogs; i.vag. 1 µg/kg, histamine plateau 50,8±2,4) was 35,3±5,3 ml/15min, the “ACIDITY Max.Eff. B-407” value (Beagle dogs; i.vag. 1 µg/kg, histamine plateau 134,2±6,4) was 101,4±13,3 mEq.H^+/l and the “ACIDITY % Inhib” value (Beagle dogs; i.vag. 3 µg/kg) was 71,5%. For the same compound, the “VOLUME % Inhib.” value (Beagle dogs; i.vag. 3 µg/kg) was 98,4%, the “VOLUME Max.eff. B-407” value (Beagle dogs; i.vag. 3 µg/kg, histamine plateau 49,1±2,5) was 0,8±0,4 ml/15min and the “ACIDITY Max.Eff. B-407” value (Beagle dogs; i.vag. 3 µg/kg, histamine plateau 132,6±8,7) was 37,8±12,7 mEq.H^+/l.
